Data from ChEMBL document CHEMBL4400538, “Discovery of Carboline Derivatives as Potent Antifungal Agents for the Treatment of Cryptococcal Meningitis” (J Med Chem, 2019).
Active and inactive are the calls of the source. The calls are words filed in the database; no cut-off is given here.

Tests used:
Cryptococcus neoformans [1] = assay: Induction of cell cycle arrest in Cryptococcus neoformans H99 assessed as accumulation at G2 phase at 1 to 2 ug/ml after 24 hrs by propidium iodide-staining based FACS analysis (reference value: 3.86%); assay type: functional, var grubii H99
Cryptococcus neoformans [2] = assay: Induction of cell cycle arrest in Cryptococcus neoformans H99 assessed as accumulation at G1 phase at 1 to 2 ug/ml after 24 hrs by propidium iodide-staining based FACS analysis (reference value: 44.50%); assay type: functional, var grubii H99
[3] = Protein binding in mouse plasma; assay type: ADME, cell-free
Cryptococcus neoformans [4] = assay: Induction of up-regulation of Ycg1 gene expression in Cryptococcus neoformans H99 at 2 ug/ml after 24 hrs by RNA-seq analysis based KEGG pathway enrichment analysis; assay type: functional, organism-based; conditions: var grubii H99
Aspergillus fumigatus = assay: Antifungal activity against Aspergillus fumigatus 7544 after 48 hrs by spectrophotometery; assay type: functional; conditions: Aspergillus fumigatus, 7544, 48 h
Cryptococcus neoformans [5] = assay: Antibiofilm activity against Cryptococcus neoformans H99 at 16 ug/ml after 90 mins by XTT assay; assay type: functional, organism-based; conditions: var grubii H99
Cryptococcus neoformans [6] = assay: Induction of up-regulation of APC/C gene expression in Cryptococcus neoformans H99 at 2 ug/ml after 24 hrs by RNA-seq analysis based KEGG pathway enrichment analysis; assay type: functional, organism-based; conditions: var grubii H99
Cryptococcus gattii = assay: Antifungal activity against Cryptococcus gattii ATCC 14116 after 72 hrs by spectrophotometery; conditions: ATCC 14116, 72 h
Trichophyton rubrum = assay: Antifungal activity against Trichophyton rubrum TIA after 48 hrs by spectrophotometery; assay type: functional
Cryptococcus neoformans [7] = assay: Antibiofilm activity against Cryptococcus neoformans H99 assessed as inhibition of cellular surface hydrophobicity at 5 ug/ml incubated for 24 hrs by water-hydrocarbon two-phase assay; assay type: functional, organism-based; conditions: var grubii H99
Cryptococcus neoformans [8] = assay: Antifungal activity against Cryptococcus neoformans H99 assessed as up-regulation of Cdc25C expression after 24 hrs by Western blot analysis; assay type: functional, organism-based; conditions: var grubii H99
[9] = Solubility of the compound; assay type: physicochemical
Cryptococcus neoformans [10] = assay: Induction of cell cycle arrest in Cryptococcus neoformans H99 assessed as accumulation at S phase at 1 to 2 ug/ml after 24 hrs by propidium iodide-staining based FACS analysis (reference value: 51.64%); assay type: functional, var grubii H99
[11] = Half life in ICR mouse liver microsomes at 1 uM measured up to 45 mins in presence of NADPH by LC-MS/MS analysis; assay type: ADME, Microsome
Cryptococcus neoformans [12] = assay: Induction of up-regulation of PCNA gene expression in Cryptococcus neoformans H99 at 2 ug/ml after 24 hrs by RNA-seq analysis based KEGG pathway enrichment analysis; assay type: functional, organism-based; conditions: var grubii H99
Nakaseomyces glabratus = assay: Antifungal activity against Candida glabrata 8535 after 48 hrs by spectrophotometery; assay type: functional; conditions: Nakaseomyces glabratus, 8535, 48 h
Cryptococcus neoformans [13] = assay: Antifungal activity against Cryptococcus neoformans H99 assessed as induction of gamma-H2AX foci at 2 ug/ml after 48 hrs by Hoechst-33342 staining based fluorescence microscopy; assay type: functional, organism-based; conditions: var grubii H99
Cryptococcus neoformans [14] = assay: Antifungal activity against Cryptococcus neoformans H99 assessed as up-regulation of CDK1 expression after 24 hrs by Western blot analysis; assay type: functional, organism-based; conditions: var grubii H99
Cryptococcus neoformans [15] = assay: Antifungal activity against Cryptococcus neoformans H99 assessed as up-regulation of cyclin B1 expression after 24 hrs by Western blot analysis; assay type: functional, organism-based; conditions: var grubii H99
Cryptococcus neoformans [16] = assay: Induction of up-regulation of MCM gene expression in Cryptococcus neoformans H99 at 2 ug/ml after 24 hrs by RNA-seq analysis based KEGG pathway enrichment analysis; assay type: functional, organism-based; conditions: var grubii H99
Cryptococcus neoformans [17] = assay: Induction of up-regulation of Lig1 gene expression in Cryptococcus neoformans H99 at 2 ug/ml after 24 hrs by RNA-seq analysis based KEGG pathway enrichment analysis; assay type: functional, organism-based; conditions: var grubii H99
Cryptococcus neoformans [18] = assay: Antifungal activity against Cryptococcus neoformans H99 after 72 hrs by growth curve assay; assay type: functional; conditions: var grubii H99 
Cryptococcus neoformans [19] = assay: Antifungal activity against Cryptococcus neoformans ATCC 34877 after 72 hrs by spectrophotometery; assay type: functional; conditions: ATCC 34877, 72 h
Cryptococcus neoformans [20] = assay: Induction of up-regulation of Mob1 gene expression in Cryptococcus neoformans H99 at 2 ug/ml after 24 hrs by RNA-seq analysis based KEGG pathway enrichment analysis; assay type: functional, organism-based; conditions: var grubii H99
Cryptococcus neoformans [21] = assay: Antifungal activity against Cryptococcus neoformans H99 infected in ICR mouse assessed as reduction in brain fungal load at 20 mg/kg, po administered daily for 5 days; assay type: functional, organism-based; conditions: var grubii H99
[22] = Effective permeability of the compound after 12 hrs by PAMPA; assay type: ADME; conditions: read-out: Peff
Cryptococcus neoformans [23] = assay: Induction of up-regulation of DNA polymerase alpha2 gene expression in Cryptococcus neoformans H99 at 2 ug/ml after 24 hrs by RNA-seq analysis based KEGG pathway enrichment analysis; assay type: functional, organism-based; conditions: var grubii H99
Cryptococcus neoformans [24] = assay: Antifungal activity against Cryptococcus neoformans H99 assessed as inhibition of microbial growth at 8 ug/ml after 12 to 48 hrs by growth curve assay; assay type: functional; conditions: var grubii H99, read-out: GI
Candida albicans [25] = assay: Antifungal activity against Candida albicans 0304103 after 48 hrs by spectrophotometery; assay type: functional; conditions: Candida albicans, 0304103, 48 h
Cryptococcus neoformans [26] = assay: Induction of up-regulation of PLK1 gene expression in Cryptococcus neoformans H99 at 2 ug/ml after 24 hrs by RNA-seq analysis based KEGG pathway enrichment analysis; assay type: functional, organism-based; conditions: var grubii H99
Cryptococcus neoformans [27] = assay: Inhibition of urease production in Cryptococcus neoformans H99 at 10 ug/ml; assay type: functional, organism-based; conditions: var grubii H99
Cryptococcus neoformans [28] = assay: Antifungal activity against Cryptococcus neoformans H99 assessed as cell wall collapse at 4 ug/ml after 24 hrs by TEM analysis; assay type: functional, organism-based; conditions: var grubii H99
Cryptococcus neoformans [29] = assay: Induction of up-regulation of Hs17 gene expression in Cryptococcus neoformans H99 at 2 ug/ml after 24 hrs by RNA-seq analysis based KEGG pathway enrichment analysis; assay type: functional, organism-based; conditions: var grubii H99
Cryptococcus neoformans [30] = assay: Antifungal activity against Cryptococcus neoformans H99 infected in ICR mouse assessed as reduction in brain fungal load at 10 mg/kg, ip administered once daily; assay type: functional, organism-based; conditions: var grubii H99
Nannizzia gypsea = assay: Antifungal activity against Microsporum gypseum MZC after 48 hrs by spectrophotometery; assay type: functional
Cryptococcus neoformans [31] = assay: Induction of up-regulation of Mps1 gene expression in Cryptococcus neoformans H99 at 2 ug/ml after 24 hrs by RNA-seq analysis based KEGG pathway enrichment analysis; assay type: functional, organism-based; conditions: var grubii H99
Cryptococcus neoformans [32] = assay: Induction of up-regulation of PNAC gene expression in Cryptococcus neoformans H99 at 2 ug/ml after 24 hrs by RNA-seq analysis based KEGG pathway enrichment analysis; assay type: functional, organism-based; conditions: var grubii H99
HUVEC = assay: Cytotoxicity against human HUVEC; assay type: cell-based
Cryptococcus neoformans [33] = assay: Inhibition of melanin production in Cryptococcus neoformans H99 at 2.5 ug/ml; assay type: functional, organism-based; conditions: var grubii H99
Cryptococcus neoformans [34] = assay: Antifungal activity against Cryptococcus neoformans H99 after 48 hrs by growth curve assay; assay type: functional
Candida parapsilosis = assay: Antifungal activity against Candida parapsilosis 5008 after 48 hrs by spectrophotometery; assay type: functional; conditions: Lodderomyces parapsilosis, 5008, 48 h
[35] = Clearance in ICR mouse liver microsomes at 1 uM measured up to 45 mins in presence of NADPH by LC-MS/MS analysis; assay type: ADME, Microsome; conditions: 0.75 h
Cryptococcus neoformans [36] = assay: Induction of up-regulation of ORC gene expression in Cryptococcus neoformans H99 at 2 ug/ml after 24 hrs by RNA-seq analysis based KEGG pathway enrichment analysis; assay type: functional, organism-based; conditions: var grubii H99
Cryptococcus neoformans [37] = assay: Antifungal activity against Cryptococcus neoformans H99 assessed as nuclear pyknosis at 4 ug/ml after 24 hrs by TEM analysis; assay type: functional, organism-based; conditions: var grubii H99
Candida albicans [38] = assay: Antifungal activity against Candida albicans 7781 after 48 hrs by spectrophotometery; assay type: functional; conditions: Candida albicans, 7781, 48 h
Cryptococcus neoformans [39] = assay: Antifungal activity against Cryptococcus neoformans H99 assessed as formation of abnormally shaped cells at 4 ug/ml after 24 hrs by TEM analysis; assay type: functional, organism-based; conditions: var grubii H99

## Clc1ccc(OCCCn2c3c(c4cc(Cl)ccc42)CCNC3)cc1.O=C(O)C(F)(F)F
Cryptococcus neoformans [1]
  Activity: 10.34%
Cryptococcus neoformans [2]
  Activity: 36.45%
[3]
  PPB: Active
Cryptococcus neoformans [4]
  Activity: Active
Aspergillus fumigatus
  MIC80: 16 µg/mL
Cryptococcus neoformans [5]
  Activity: Active
Cryptococcus neoformans [6]
  Activity: Active
Cryptococcus gattii
  MIC80: 1 µg/mL
Trichophyton rubrum
  MIC80: 4 µg/mL
Cryptococcus neoformans [7]
  Activity: Active
Cryptococcus neoformans [8]
  Activity: Dose-dependent effect
[9]
  solubility: 54.6 µg/mL
Cryptococcus neoformans [10]
  Activity: 53.21%
[11]
  half-life at 1 µM: 1.17 h
Cryptococcus neoformans [12]
  Activity: Active
Nakaseomyces glabratus
  MIC80: 1 µg/mL
Cryptococcus neoformans [13]
  Activity: Active
Cryptococcus neoformans [14]
  Activity: Dose-dependent effect
Cryptococcus neoformans [15]
  Activity: Dose-dependent effect
Cryptococcus neoformans [16]
  Activity: Active
Cryptococcus neoformans [17]
  Activity: Active
Cryptococcus neoformans [18]
  MIC80: 0.5 µg/mL
Cryptococcus neoformans [19]
  MIC80: 0.5 µg/mL
Cryptococcus neoformans [20]
  Activity: Active
Cryptococcus neoformans [21]
  Activity: Active
[22]
  Papp at 12 h: 1.8 ×10⁻⁶ cm/s
Cryptococcus neoformans [23]
  Activity: Active
Cryptococcus neoformans [24]
  inhibition of growth at 8 µg/mL: 100%
Candida albicans [25]
  MIC80: 2 µg/mL
Cryptococcus neoformans [26]
  Activity: Active
Cryptococcus neoformans [27]
  inhibition: inactive
Cryptococcus neoformans [28]
  Activity: Active
Cryptococcus neoformans [29]
  Activity: Active
Cryptococcus neoformans [30]
  Activity: Active
Nannizzia gypsea
  MIC80: 8 µg/mL
Cryptococcus neoformans [31]
  Activity: Active
Cryptococcus neoformans [32]
  Activity: Active
HUVEC
  Activity: Non-Toxic
Cryptococcus neoformans [33]
  inhibition: Active
Cryptococcus neoformans [34]; var grubii H99
  Activity: Dose-dependent effect
Cryptococcus neoformans [34]; var grubii H99 
  MIC80: 0.25 µg/mL
Candida parapsilosis
  MIC80: 2 µg/mL
[35]
  scaled CLint: 78 mL/min/kg
Cryptococcus neoformans [36]
  Activity: Active
Cryptococcus neoformans [37]
  Activity: Active
Candida albicans [38]
  MIC80: 4 µg/mL
Cryptococcus neoformans [39]
  Activity: Active
